Measured values reported in patent US12215173B2, “Kappa opioid receptor peptide amide ligands” (priority 2019, dated 2025).
Where two headings read alike, the source gives them in different places.

What was measured:
[1] = molecular target: Opioid Kappa Receptor (recombinant human, HEK293 cells) (Homo sapiens (Human), UniProt P41145); assay: cell-based; settings: read-out: EC50
[2] = molecular target: recombinant human mu (MOR) opioid receptor (Homo sapiens (Human), UniProt P35372); assay: Opioid receptor radioligand binding assay, MOR
[3] = molecular target: recombinant human delta (DOR) opioid receptor (Homo sapiens (Human), UniProt P41143); assay: Opioid receptor radioligand binding assay, DOR
Sequence of recombinant human delta (DOR) opioid receptor (P41143 whole entry, looked up): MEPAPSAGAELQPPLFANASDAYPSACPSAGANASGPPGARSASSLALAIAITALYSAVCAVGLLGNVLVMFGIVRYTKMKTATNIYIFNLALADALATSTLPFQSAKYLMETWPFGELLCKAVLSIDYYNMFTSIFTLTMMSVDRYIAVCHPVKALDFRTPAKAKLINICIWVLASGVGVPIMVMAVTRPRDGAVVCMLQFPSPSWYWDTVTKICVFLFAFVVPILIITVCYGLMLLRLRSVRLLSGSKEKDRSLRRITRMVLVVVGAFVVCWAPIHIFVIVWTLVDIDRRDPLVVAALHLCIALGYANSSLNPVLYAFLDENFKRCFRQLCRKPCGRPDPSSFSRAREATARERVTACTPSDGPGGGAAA

[4] = molecular target: recombinant human kappa (KOR) opioid receptor (Homo sapiens (Human), UniProt P41145); assay: biochemical; format: binding; settings: HEK293 cell membranes, 0.5 nM [3H]diprenorphine
[5] = HEK293 cell membranes, 0.5 nM [3H]DAMGO, read-out: MOR, IC50
[6] = HEK293 cell membranes, 0.5 nM [3H]DADLE, read-out: DOR, IC50

Structure (SMILES)	EC50 [1]	IC50 [2]	IC50 [3]	IC50 [4]	IC50 [2, 5]	IC50 [3, 6]
CC(C)C[C@@H](NC(=O)[C@@H](Cc1ccccc1)NC(=O)[C@H](N)Cc1ccccc1)C(=O)N[C@H](CCCCN)C(=O)NCc1ccc2c(c1)OCO2 [Compound 13-1]	42.2 nM	2080 nM	> 10000 nM	1.96 nM		
COCCNC(=O)[C@@H](CCCCN)NC(=O)[C@@H](CC(C)C)NC(=O)[C@@H](Cc1ccccc1)NC(=O)[C@H](N)Cc1ccccc1 [Compound 13-2]	8.31 nM			1.37 nM	> 10000 nM	> 10000 nM
COCCN(CCOC)C(=O)[C@@H](CCCCN)NC(=O)[C@@H](CC(C)C)NC(=O)[C@@H](Cc1ccccc1)NC(=O)[C@H](N)Cc1ccccc1 [Compound 13-3]				28.1 nM	> 10000 nM	> 10000 nM
COCCOCCNC(=O)[C@@H](CCCCN)NC(=O)[C@@H](CC(C)C)NC(=O)[C@@H](Cc1ccccc1)NC(=O)[C@H](N)Cc1ccccc1 [Compound 13-4]	13.5 nM			2.8 nM	> 10000 nM	> 10000 nM
COCCOCCOCCNC(=O)[C@@H](CCCCN)NC(=O)[C@@H](CC(C)C)NC(=O)[C@@H](Cc1ccccc1)NC(=O)[C@H](N)Cc1ccccc1 [Compound 13-5]	15.8 nM			5.92 nM	> 10000 nM	> 10000 nM
CC(C)C[C@@H](NC(=O)[C@@H](Cc1ccccc1)NC(=O)[C@H](N)Cc1ccccc1)C(=O)N[C@H](CCCCN)C(=O)NCc1cccc(C(=O)O)n1 [Compound 13-6]	30.5 nM					
CC(C)C[C@@H](NC(=O)[C@@H](Cc1ccccc1)NC(=O)[C@H](N)Cc1ccccc1)C(=O)N[C@H](CCCCN)C(=O)NCc1cccnc1C(=O)O [Compound 13-7]	24.7 nM	> 10000 nM	> 10000 nM	11.4 nM		
CC(C)C[C@@H](NC(=O)[C@@H](Cc1ccccc1)NC(=O)[C@H](N)Cc1ccccc1)C(=O)N[C@H](CCCCN)C(=O)NCc1ccnc(C(=O)O)c1 [Compound 13-8]	14.7 nM			6.04 nM	> 10000 nM	> 10000 nM
CC(C)C[C@@H](NC(=O)[C@@H](Cc1ccccc1)NC(=O)[C@H](N)Cc1ccccc1)C(=O)N[C@H](CCCCN)C(=O)NCc1cc[nH]c(=O)c1 [Compound 13-9]	18.1 nM			0.41 nM	> 10000 nM	> 10000 nM
CC(C)C[C@@H](NC(=O)[C@@H](Cc1ccccc1)NC(=O)[C@H](N)Cc1ccccc1)C(=O)N[C@H](CCCCN)C(=O)NCc1ccc(O)c(O)c1 [Compound 13-10]	23.1 nM			0.67 nM	> 10000 nM	> 10000 nM
CC(C)C[C@@H](NC(=O)[C@@H](Cc1ccccc1)NC(=O)[C@H](N)Cc1ccccc1)C(=O)N[C@H](CCCCN)C(=O)NCc1ccncc1O [Compound 13-11]				0.91 nM	> 10000 nM	> 10000 nM
COC(=O)[C@@H](N)CNC(=O)[C@@H](CCCCN)NC(=O)[C@@H](CC(C)C)NC(=O)[C@@H](Cc1ccccc1)NC(=O)[C@H](N)Cc1ccccc1 [Compound 13-12]	7.07 nM			6.6 nM	> 10000 nM	> 10000 nM
CC(C)C[C@@H](NC(=O)[C@@H](Cc1ccccc1)NC(=O)[C@H](N)Cc1ccccc1)C(=O)N[C@H](CCCCN)C(=O)NC[C@H](N)C(=O)O [Compound 13-13]	88.4 nM			16.1 nM	> 10000 nM	> 10000 nM
CC(C)C[C@@H](NC(=O)[C@@H](Cc1ccccc1)NC(=O)[C@H](N)Cc1ccccc1)C(=O)N[C@H](CCCCN)C(=O)N1CCNC(=O)C1 [Compound 13-14]	12.9 nM			0.21 nM	> 10000 nM	> 10000 nM
CC(C)C[C@@H](NC(=O)[C@@H](Cc1ccccc1)NC(=O)[C@H](N)Cc1ccccc1)C(=O)N[C@H](CCCCN)C(=O)N1CCN(C(=O)/C=C/C(=O)O)CC1 [Compound 13-25]				5.56 nM	> 10000 nM	> 10000 nM
CC(C)C[C@@H](NC(=O)[C@@H](Cc1ccccc1)NC(=O)[C@H](N)Cc1ccccc1)C(=O)N[C@H](CCCCN)C(=O)N1CCC(NC(=O)C(N)=O)CC1 [Compound 13-33]				0.54 nM	> 10000 nM	> 10000 nM
CC(C)C[C@@H](NC(=O)[C@@H](Cc1ccccc1)NC(=O)[C@H](N)Cc1ccccc1)C(=O)N[C@H](CCCCN)C(=O)NC1CCN(C(=O)C(=O)NC2CC2)CC1 [Compound 13-37]				11 nM	9290 nM	> 10000 nM
CC(C)C[C@@H](NC(=O)[C@@H](Cc1ccccc1)NC(=O)[C@H](N)Cc1ccccc1)C(=O)N[C@H](CCCCN)C(=O)NCCC[C@H](N)C(=O)O [Compound 13-44]	4.75 nM					
